Consider 8 compounds from US20260184710A1, “CASITAS B-LINEAGE LYMPHOMA PROTOONCOGENE B (CBL-B) DEGRADING COMPOUNDS AND ASSOCIATED METHODS OF USE” (Arvinas Operations, Inc., priority 2022, published 2026).

Test [1] has as its target T1, Cbl-b (Homo sapiens, UniProt Q13191).
T1 construct: Cbl-b-HiBit KI Jurkat Cells were purchased from Promega; host or cells: Cbl-b-HiBiT knock-in Jurkat cells
As to the kind of experiment: Cbl-b Degradation Method A (FACS, anti-Cbl-b antibody staining). The class given is cell-based. The following applies: Cbl-b-HiBit KI Jurkat Cells, incubated at least 20 hours; for DC50: half maximal degradation, read-out: Cbl-b Degredation Method A IC50; for Dmax: Jurkat, read-out: Cbl-b Degredation Method A Dmax (%); for Dmax / Cbl-b Degredation Method A Dmax (%): maximum degradation observed. The protocol:
Cbl-b Degradation Method A
Cbl-b-HiBit KI Jurkat Cells were purchased from Promega, and cell media consisted of RPMI 1640 with 10% FBS and 1% pen/strep. The cells were counted, measured for viability, and 100 μL of the cell solution was into 96 well flat bottom plates at a ratio of 290,000 cells per 100 μL. Compounds were dissolved in DMSO to make a 10 mM stock solution, which was diluted with cell media. 100 μL of the diluted compound mixture was added to the wells. The plate was incubated for at least 20 hours at 37° C. and 5% CO2. After incubation, the plate was shaken at 700-750 RMP for 15-30 minutes to ensure cells were removed from the wells. The wells were transferred to a 96-well v-bottom plate and spun for 2200 RPM for 3 minutes. The supernatant was removed, cells re-suspended in 100 μL of the fixative, and subsequently incubated at room temperature for 15 minutes. Afterwards, 150 μL of DPBS was added to each well, and the cells were centrifuged at 2500 RPM for 3 minutes. The supernatant was removed and the plate was chilled on ice for 2-3 minutes. While still on the ice, 100 μL of Perm III was added to each well, the wells mixed, and subsequently left on the ice for another 15 minutes. Afterwards, the plate was removed from the ice, 150 μL of DBPS was added to each well, and the cells centrifuged at 2700 RPM for 3 minutes. The supernatant was removed, and an additional 200 μL of was DPBS was added to each well, followed by centrifuging at 2700 RPM for 3 minutes, after which the supernatant was removed. The anti-Cbl-b antibody was diluted 1:200 in 1× Perm Wash buffer and 50 μL of the antibody mixture was added to each well and mixed. After addition, the plate was incubated for 35-45 minutes at room temperature. After incubation, 200 μL of DPBS was added to each wells, and the plate centrifuged at 2700 RPM for 3 minutes, followed by the removal of the supernatant. The washing step was repeated by adding 200 μL of DPBS to each wells followed by centrifuge at 2700 RPM for 3 minutes and removal of the supernatant. The a-Rabbit-AF488 antibody was diluted 1:1000 in Perm Wash buffer, 50 μL of the dilution added to each well, and mixed. After mixing, the plate was incubated for 30 minutes at room temperature in the dark. Subsequently, the supernatant was removed, and 200 μL of DBPS added to the cells, which were then centrifuged at 2900 RPM for 4 minutes. The supernatant was removed, and an additional 95 μL of DBPS was added to the wells and mixed. The cells were then transferred to a round bottom polypropylene plate and analyzed using FACS with the parameters below:
The concentration of an exemplary compound that leads to half maximal degradation (DC50) as well as the maximum degradation observed (Dmax, conventionally expressed as a percentage of control) is shown below in Table 2.
In general terms: HiBiT is a short tag that completes a luciferase, so light tracks the accessible tagged protein.

Test [2] has as its target T1, Cbl-b. The test is described as follows: Cbl-b Degradation Method B (Nano-Glo HiBiT lytic detection). It is filed as cell-based. The following applies: Cbl-b-HiBit KI Jurkat Cells, incubated at least 6-24 hours; for DC50: half maximal degradation, read-out: Cbl-b Degredation Method B IC50; for Dmax / Cbl-b Degredation Method B Dmax (%): maximum degradation observed; for Dmax: read-out: Cbl-b Degredation Method B Dmax (%). The procedure, abridged:
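An 11-point, 3-fold compound dilution was applied for 6-24 hours to Jurkat cells carrying HiBiT-tagged endogenous Cbl-b. Lytic HiBiT luminescence quantified residual protein. Outputs are DC50 and Dmax relative to DMSO control.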

T1 sequence (Q13191 whole entry): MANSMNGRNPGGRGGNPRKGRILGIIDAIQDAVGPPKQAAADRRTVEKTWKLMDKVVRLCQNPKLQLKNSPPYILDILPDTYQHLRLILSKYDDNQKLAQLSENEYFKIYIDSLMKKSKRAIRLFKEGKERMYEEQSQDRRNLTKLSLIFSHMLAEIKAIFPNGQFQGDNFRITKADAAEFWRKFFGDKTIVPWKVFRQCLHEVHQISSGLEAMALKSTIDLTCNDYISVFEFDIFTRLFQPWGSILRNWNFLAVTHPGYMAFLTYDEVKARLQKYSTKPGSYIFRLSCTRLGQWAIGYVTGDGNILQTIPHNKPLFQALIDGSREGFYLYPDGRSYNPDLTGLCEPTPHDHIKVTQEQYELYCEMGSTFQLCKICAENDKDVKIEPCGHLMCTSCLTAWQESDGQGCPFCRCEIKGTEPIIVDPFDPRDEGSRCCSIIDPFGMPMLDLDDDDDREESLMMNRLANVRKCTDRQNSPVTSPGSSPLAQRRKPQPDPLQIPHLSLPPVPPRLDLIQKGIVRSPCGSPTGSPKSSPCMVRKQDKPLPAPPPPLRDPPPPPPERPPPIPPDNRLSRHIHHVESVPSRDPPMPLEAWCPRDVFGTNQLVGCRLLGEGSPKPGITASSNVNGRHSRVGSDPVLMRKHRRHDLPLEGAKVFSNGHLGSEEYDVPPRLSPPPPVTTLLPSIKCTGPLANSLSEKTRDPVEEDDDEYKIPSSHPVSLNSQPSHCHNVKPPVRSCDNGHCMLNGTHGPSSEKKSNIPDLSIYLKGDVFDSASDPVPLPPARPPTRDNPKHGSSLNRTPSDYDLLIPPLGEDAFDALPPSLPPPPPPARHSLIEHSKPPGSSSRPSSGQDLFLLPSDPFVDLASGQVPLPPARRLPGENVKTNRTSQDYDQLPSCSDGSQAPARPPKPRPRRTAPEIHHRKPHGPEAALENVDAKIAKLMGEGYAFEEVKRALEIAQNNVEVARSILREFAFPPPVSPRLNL

Take `CC1c2nc(N3CCC(O[C@H]4CC[C@H](CN5CCN(Cc6cc7c(c(C(F)(F)F)c6)CN(c6cccc(C8(Cc9nncn9C)CCC8)c6)C7=O)CC5)CC4)CC3)ccc2C(=O)N1C1CCC(=O)NC1=O` (mixture of isomers) [Example 232, rac-3-[7-methyl-5-oxo-2-(4-{[(1r,4r)-4-[(4-{[2-(3-{1-[(4-methyl-4H-1,2,4-triazol-3-yl)methyl]cyclobutyl}phenyl)-3-oxo-7-(trifluoromethyl)-2,3-dihydro-1H-isoindol-5-yl]methyl}piperazin-1-yl)methyl]cyclohexyl]oxy}piperidin-1-yl)-5H,6H,7H-pyrrolo[3,4-b]pyridin-6-yl]piperidine-2,6-dione]: on Cbl-b [1], the DC50 was in the range of 5 to 50 nM and the Dmax is more than 70%. For the same compound, at Cbl-b [2], the DC50 was less than 5 nM and the greatest degradation seen (Dmax) lay within 35 to 70%.

On to `CC1c2nc(N3CCC(O[C@H]4CC[C@H](CN5CCN(Cc6cc7c(c(C(F)(F)F)c6)CN(c6cccc(C8(Cc9nncn9C)CC8)c6)C7=O)CC5)CC4)CC3)ccc2C(=O)N1C1CCC(=O)NC1=O` (mixture of isomers) [Example 234, rac-3-[7-methyl-5-oxo-2-(4-{[(1r,4r)-4-[(4-{[2-(3-{1-[(4-methyl-4H-1,2,4-triazol-3-yl)methyl]cyclopropyl}phenyl)-3-oxo-7-(trifluoromethyl)-2,3-dihydro-1H-isoindol-5-yl]methyl}piperazin-1-yl)methyl]cyclohexyl]oxy}piperidin-1-yl)-5H,6H,7H-pyrrolo[3,4-b]pyridin-6-yl]piperidine-2,6-dione], for which, at Cbl-b [1], the DC50 was 5 to 50 nM and the Dmax lay in the range of 35 to 70%. Also, at Cbl-b [2], the DC50 is less than 5 nM and the Dmax was 35 to 70%.

As for `CC1c2nc(N3CCC(O[C@H]4CC[C@H](CN5CCN(Cc6cc7c(c(C(F)(F)F)c6)CN(c6cccc(C8(Cc9nncn9C)COC8)c6)C7=O)CC5(C)C)CC4)CC3)ccc2C(=O)N1C1CCC(=O)NC1=O` (mixture of isomers) [Example 236, rac-3-[7-methyl-5-oxo-2-(4-{[(1r,4r)-4-[(2,2-dimethyl-4-{[2-(3-{3-[(4-methyl-4H-1,2,4-triazol-3-yl)methyl]oxetan-3-yl}phenyl)-3-oxo-7-(trifluoromethyl)-2,3-dihydro-1H-isoindol-5-yl]methyl}piperazin-1-yl)methyl]cyclohexyl]oxy}piperidin-1-yl)-5H,6H,7H-pyrrolo[3,4-b]pyridin-6-yl]piperidine-2,6-dione], at Cbl-b [1], the DC50 was less than 5 nM and the Dmax is more than 70%. Moreover, on Cbl-b [2], the DC50 was less than 5 nM and the Dmax was more than 70%.

With `CC(c1cc2c(c(C(F)(F)F)c1)CN(c1cccc(C3(Cc4nncn4C)COC3)c1)C2=O)N1CCN(C[C@H]2CC[C@H](OC3CCN(c4ccc5c(c4F)CN(C4CCC(=O)NC4=O)C5=O)CC3)CC2)CC1` (single isomer, unassigned) [Example 9, 3-[4-fluoro-1-oxo-5-(4-{[(1r, 4r)-4-[(4-{1-[2-(3-{3-[(4-methyl-4H-1,2,4-triazol-3-yl)methyl]oxetan-3-yl}phenyl)-3-oxo-7-(trifluoromethyl)-2,3-dihydro-1H-isoindol-5-yl]ethyl}piperazin-1-yl)methyl]cyclohexyl]oxy}piperidin-1-yl)-2,3-dihydro-1H-isoindol-2-yl]piperidine-2,6-dione], at Cbl-b [1], the DC50 is less than 5 nM and the “Cbl-b Degredation Method A Dmax (%)” value is on record as “B (35 < B < 70)”. Also, at Cbl-b [2], the DC50 is less than 5 nM and the “Cbl-b Degredation Method B Dmax (%)” value was “B (35 < B < 70)”.

Consider `C[C@@H]1c2nc(N3CCC(O[C@H]4CC[C@H](CN5CCN(Cc6cc7c(c(C(F)(F)F)c6)CN(c6cccc(C8(Cc9nncn9C)CC(C#N)C8)c6)C7=O)C6(CC6)C5)CC4)CC3)ccc2C(=O)N1C1CCC(=O)NC1=O` (single isomer, unassigned) [Example 304, (1r***,3r***)-3-[(4-methyl-4H-1,2,4-triazol-3-yl)methyl]-3-(3-{1-oxo-6-[(7-{[(1r**,4r**)-4-({1-[(7R*)-6-(2,6-dioxopiperidin-3-yl)-7-methyl-5-oxo-5H,6H,7H-pyrrolo[3,4-b]pyridin-2-yl]piperidin-4-yl}oxy)cyclohexyl]methyl}-4,7-diazaspiro[2.5]octan-4-yl)methyl]-4-(trifluoromethyl)-2,3-dihydro-1H-isoindol-2-yl}phenyl)cyclobutane-1-carbonitrile], for which, on Cbl-b [1], the DC50 fell in the range of 50 to 500 nM and the Dmax fell in the range of 35 to 70%. On Cbl-b [2], the DC50 is less than 5 nM and the “Cbl-b Degredation Method B Dmax (%)” value is reported as “C (C ≤ 35)”.

With `C[C@@H]1c2nc(N3CCC(O[C@H]4CC[C@H](CN5CCN(Cc6cc7c(c(C(F)(F)F)c6)CN(c6cccc(C8(Cc9nncn9C)CC(C#N)C8)c6)C7=O)C(C)(C)C5)CC4)CC3)ccc2C(=O)N1C1CCC(=O)NC1=O` (single isomer, unassigned) [Example 306, (1r***,3r***)-3-(3-{6-[(2,2-dimethyl-4-{[(1r**,4r**)-4-({1-[(7R*)-6-(2,6-dioxopiperidin-3-yl)-7-methyl-5-oxo-5H,6H,7H-pyrrolo[3,4-b]pyridin-2-yl]piperidin-4-yl}oxy)cyclohexyl]methyl}piperazin-1-yl)methyl]-1-oxo-4-(trifluoromethyl)-2,3-dihydro-1H-isoindol-2-yl}phenyl)-3-[(4-methyl-4H-1,2,4-triazol-3-yl)methyl]cyclobutane-1-carbonitrile], at Cbl-b [1], the DC50 lay within 50 to 500 nM and the Dmax is 35 to 70%. At Cbl-b [2], the DC50 was less than 5 nM and the “Cbl-b Degredation Method B Dmax (%)” value is “C (C ≤ 35)”.

As to `C[C@@H]1c2nc(N3CCC(O[C@H]4CC[C@H](CN5CCN(Cc6cc7c(c(C(F)(F)F)c6)CN(c6cccc(C8(Cc9nncn9C)CC(C#N)C8)c6)C7=O)C(C)(C)C5)CC4)CC3)ccc2C(=O)N1C1CCC(=O)NC1=O` (single isomer, unassigned) [Example 307, (1r***,3r***)-3-(3-{6-[(2,2-dimethyl-4-{[(1r**,4r**)-4-({1-[(7R*)-6-(2,6-dioxopiperidin-3-yl)-7-methyl-5-oxo-5H,6H,7H-pyrrolo[3,4-b]pyridin-2-yl]piperidin-4-yl}oxy)cyclohexyl]methyl}piperazin-1-yl)methyl]-1-oxo-4-(trifluoromethyl)-2,3-dihydro-1H-isoindol-2-yl}phenyl)-3-[(4-methyl-4H-1,2,4-triazol-3-yl)methyl]cyclobutane-1-carbonitrile], at Cbl-b [1], the DC50 fell in the range of 50 to 500 nM and the “Cbl-b Degredation Method A Dmax (%)” value is recorded as “B (35 < B < 70)”. Moreover, on Cbl-b [2], the DC50 was less than 5 nM and the “Cbl-b Degredation Method B Dmax (%)” value is on record as “C (C ≤ 35)”.

Regarding `Cc1cc(N2CCC(O[C@H]3CC[C@H](CN4CCN(Cc5cc6c(c(C(F)(F)F)c5)CN(c5cccc(C7(Cc8nncn8C)CCC7)c5)C6=O)C(C)(C)C4)CC3)CC2)c(F)c2c1C(=O)N(C1CCC(=O)NC1=O)C2` (stereo partly drawn) [Example 224, 3-[4-fluoro-7-methyl-1-oxo-5-(4-{[(1r,4r)-4-[(3,3-dimethyl-4-{[2-(3-{1-[(4-methyl-4H-1,2,4-triazol-3-yl)methyl]cyclobutyl}phenyl)-3-oxo-7-(trifluoromethyl)-2,3-dihydro-1H-isoindol-5-yl]methyl}piperazin-1-yl)methyl]cyclohexyl]oxy}piperidin-1-yl)-2,3-dihydro-1H-isoindol-2-yl]piperidine-2,6-dione], on Cbl-b [1], the DC50 was in the range of 5 to 50 nM and the greatest degradation seen (Dmax) was more than 70%.

What is called Dmax is the greatest extent of degradation seen.
